Data reported in US10428030B2, “Heterocycle derivatives and their use for the treatment of CNS disorders” (Trillium Therapeutics Inc., priority 2015, dated 2019).

Assays:
Assay type in all cases: in vivo
[1] = system: Frings audiogenic seizure-susceptible mice; assay: Frings audiogenic seizure (AGS)-susceptible mouse model
Source text: Frings audiogenic seizure (AGS)-susceptible mice model examines the ability of an investigational drug to alter the onset and/or severity of seizures in a genetic mouse model of seizure susceptibility. Mice are genetically susceptible to sound-induced reflex seizures. Their seizure phenotype is characterized by wild running, loss of righting reflex, tonic flexion, and tonic extension in response to high-intensity sound stimulation. […] For example, the prototypical anticonvulsants phenytoin and ethosuximide display widely divergent clinical spectrums in humans, but are both active against sound-induced seizures in mice. Yet, the preclinical utility of this animal model rests in the useful information that can be obtained within a genetically susceptible model of seizures. Further, efficacy in this model provides proof of concept of brain bioavailability following systemic administration. The Frings AGS-susceptible mouse has a well-validated epilepsy phenotype that makes it particularly useful as a screening model. Beginning at about 21 days of age, Frings AGS-susceptible mice display prominent seizure activity in response to a high-intensity sound stimulus. They then remain susceptible to sound throughout their life. This is in stark contrast to the DBA2J AGS-susceptible mouse, which is the other common model of sound-induced seizures, as DBA2J mice are only susceptible to sound-induced seizures during a narrow developmental window (post-natal days 18-30). Thus, the Frings AGS-susceptible mouse seizures respond to a wide range of CNS-active drugs and display sound-induced seizures throughout their lifetime. In this regard, Frings AGS-susceptible mice are a highly useful screening model for the identification and characterization of compounds potentially effective against inherited epilepsy.
Male and female Frings audiogenic seizure-susceptible mice (18-25 g) are maintained in an in-house colony at the University of Utah. For each screening test, groups of 8 mice each are treated i.p. with varying doses of the investigational compound. At the time of peak effect as determined in the MES test (Test 4 in CF1 mice), individual mice are placed in a round plexiglass jar (diameter, 15 cm, height, 18 cm) and exposed to a sound stimulus of 110 decibels (11 KHz) delivered for 20 sec. Mice are observed for 25 sec for the presence or absence of hind limb tonic extension. Mice not displaying hind limb tonic extension are considered protected. The severity of a seizure may also be quantitated by assigning a numerical score to the observed response, e.g. no response—0; wild running for <10 sec—1; wild running for >10 sec—2; clonic seizure—3; forelimb extension/hind limb flexion—4; tonic seizure—5.

[2] = system: amygdala kindled rat; assay: Amygdala kindled rat model (focal seizures); conditions: <100 mg/kg i.p., vs vehicle controls
Source text: Amygdala kindling model is an animal model for complex partial seizures, which is the most common type of epilepsy in adults and is often drug resistant. Exemplary compounds of the application were effective in this model.

[3] = system: Male Sprague-Dawley rats; assay: Maximal Electroshock Seizure (MES) rat model; conditions: po, 4 hours
Procedure: Male, Sprague-Dawley rats and CD-1 mice were used for all studies. All animals were allowed ad-lib access to food and water except during experiment. Animals were housed within an animal vivarium maintained under a 12 h light:dark cycle (lights on: 07:00 h), and all experiments were conducted in the animals light phase. For all experiments, animals were habituated to the vivarium for a minimum of 72 h before experimentation. The experimental procedures used in the present investigation were conducted under the Association for Assessment and Accreditation of Laboratory Animal Care (AAALAC) and the Canadian Council on Animal Care (CCAC) guidelines.
All compounds were sonicated in 5% Tween 80® in saline or methylcellulose 0.5% (wgt/vol), using MC and sterile water and injected in a dose volume of 5 ml/kg or 10 ml/kg (rat), and 10 ml/kg (mouse). Drugs were administered by either the oral, intraperitoneal or intravenous route.
Male Sprague-Dawley rats of body weight 80-100 g were used for these studies. Each experiment was conducted over 3 consecutive days. On day 1 and 2, each rat received a single electrical stimulus (150 mA, 0.2 s duration, 60 Hz) via corneal electrodes moistened with saline (Shock stimulator type 221: Harvard apparatus). […] Typically this reflected approximately 70-90% of the initial group.
On the test day following a defined drug pretreatment period, rats received a maximal electroshock (150 mA, 0.2 s duration, 60 Hz) via corneal electrodes. Protection was defined as absence of a full tonic seizure within 10 s of stimulus delivery. Twenty minutes before the MES procedure, the animals were tested on a fixed speed rotorod (best score from 3 trials at 8 r.p.m, trial duration=60 s) to give an early assessment of drug effect on gross motor function.

[4] = system: hippocampal kindled rat; assay: Hippocampal kindled rat model (focal seizures); conditions: <300 mg/kg i.p., vs vehicle controls
Source text: Hippocampal Kindled Rat Test is designed to quantify the anticonvulsant effects of a test compound in the kindled rat model. Rats treated by i.p. injection.
The Kindled Rat is a model of temporal lobe epilepsy, which is the most common and drug-resistant type of adult focal epilepsy (Morimoto et al., 2004). […] This acquired hyper-responsiveness is called kindling and results not only in increased seizure responses but also in an elongation of the after-discharge duration seen on an EEC recording. Electrodes are implanted into the hippocampus of anesthetized rats, which are then allowed to recover for one week. […] At each time point, the behavioral seizure score (BSS) and after-discharge duration (ADD) is recorded. The BSS's are scored according to the following criteria (Racine, Electroencephalogr Clin Neurophysiol 1972, 32:281-94): Stage 1—mouth and facial clonus; Stage 2—stage 1 plus head nodding; Stage 3—stage 2 plus forelimb clonus; Stage 4—stage 3 plus rearing; and Stage 5—stage 4 plus repeated rearing and falling.
The afterdischarge threshold (ADT) can also be measured in the kindled rat. […] The individual rat ADT is then determined at varying times (i.e., 0.25, 1, 2, and 4 hr) after drug administration.

O=C1COc2cc(OCc3ccc(OC(F)F)cc3)ccc2N1 [Compound I(B)]
ED50 ([1]; Mus musculus, ip, sound-induced seizures): 13 ± 2 mg/kg | effect on AGS ([1]; i.p.): dose-dependently blocks AGS | suppression of fully kindled (stage 5) seizures [2]: dose related suppression of fully kindled (stage 5) seizures | ED50 [3]: 20.1 ± 0.7 mg/kg | suppression of fully kindled (stage 5) seizures [4]: dose related suppression of fully kindled (stage 5) seizures
